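A five-concentration, 48-hour dose response in 96-well plates underlies each endpoint, interpolated linearly between surrounding concentrations. Abbreviation: GI50, concentration required for 50% inhibition of growth. At the TGI there is no net growth.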
Assays:
Test in all cases: NCI anticancer screen, dose series, 48 h
[1] = system: HOP-92 NSCLC
[2] = system: RPMI-8226 leukemia
[3] = system: CCRF-CEM leukemia
[4] = system: SF-539 CNS
[5] = system: HCT-116 colon
[6] = system: NCI-H226 lung
[7] = system: K-562 leukemia
[8] = system: NCI-H460 lung
[9] = system: TK-10 renal
[10] = system: HOP-62 NSCLC
[11] = system: 786-0 renal
[12] = system: HCT-15 colon
[13] = system: HCC-2998 colon
[14] = system: NCI-H522 lung
[15] = system: MALME-3M melanoma
[16] = system: BT-549 breast
[17] = system: OVCAR-5 ovarian
[18] = system: A498 renal
[19] = system: OVCAR-8 ovarian
[20] = system: OVCAR-4 ovarian
[21] = system: SN12C renal
[22] = system: MCF7 breast
[23] = system: MDA-MB-231 breast
[24] = system: NCI-H23 lung
[25] = system: SR leukemia
[26] = system: SW-620 colon
[27] = system: M14 melanoma
[28] = system: MOLT-4 leukemia
[29] = system: ACHN renal
[30] = system: LOX IMVI melanoma
[31] = system: UACC-257 melanoma
[32] = system: KM12 colon
[33] = system: MDA-MB-435
[34] = system: OVCAR-3 ovarian
[35] = system: RXF 393 renal
[36] = system: SNB-19 CNS
[37] = system: SF-268 CNS
[38] = system: UACC-62 melanoma
[39] = system: IGROV1 ovarian
[40] = system: PC-3 prostate
[41] = system: SNB-75 CNS
[42] = system: T-47D breast
[43] = system: COLO 205 colon
[44] = system: CAKI-1 renal
[45] = system: NCI/ADR-RES ovarian
[46] = system: EKVX NSCLC
[47] = system: SK-MEL-5 melanoma
[48] = system: SF-295 CNS
[49] = system: UO-31 renal
[50] = system: SK-MEL-28 melanoma
[51] = system: HS 578T breast
[52] = system: HL-60(TB) leukemia
[53] = system: SK-MEL-2 melanoma
[54] = system: A549 NSCLC
[55] = system: DU-145 prostate
[56] = system: SK-OV-3 ovarian
[57] = system: U251 CNS
[58] = system: HT29 colon

## O=C(NNc1nc2cc(F)ccc2n2cccc12)c1ccncn1
[1]
  GI50: 287 nM
  TGI: 11700 nM
[2]
  GI50: 242 nM
  TGI: 2300 nM
[3]
  GI50: 32.7 nM
  TGI: 428 nM
[4]
  GI50: 435 nM
  TGI: > 9300 nM
[5]
  GI50: 153 nM
  TGI: > 11000 nM
[6]
  GI50: 548 nM
  TGI: 10300 nM
[7]
  GI50: 176 nM
  TGI: > 9890 nM
[8]
  GI50: 76.4 nM
  TGI: > 7440 nM
[9]
  GI50: 361 nM
  TGI: > 19000 nM
[10]
  GI50: 94.1 nM
  TGI: 9120 nM
[11]
  GI50: 412 nM
  TGI: > 15700 nM
[12]
  GI50: 70.4 nM
  TGI: > 20200 nM
[13]
  GI50: 738 nM
  TGI: > 23100 nM
[14]
  GI50: 429 nM
  TGI: > 6940 nM
[15]
  GI50: 910 nM
  TGI: > 21200 nM
[16]
  GI50: 841 nM
  TGI: > 21300 nM
[17]
  GI50: 1300 nM
  TGI: > 30000 nM
[18]
  GI50: 745 nM
  TGI: 3730 nM
[19]
  GI50: 277 nM
  TGI: > 28400 nM
[20]
  GI50: 162 nM
  TGI: > 8250 nM
[21]
  GI50: 564 nM
  TGI: > 30000 nM
[22]
  GI50: 270 nM
  TGI: > 15300 nM
[23]
  GI50: 766 nM
  TGI: > 30000 nM
[24]
  GI50: 437 nM
  TGI: > 30000 nM
[25]
  GI50: 71.1 nM
[26]
  GI50: 284 nM
  TGI: > 24100 nM
[27]
  GI50: 255 nM
  TGI: > 11000 nM
[28]
  GI50: 109 nM
[29]
  GI50: 179 nM
  TGI: > 30000 nM
[30]
  GI50: 168 nM
  TGI: > 9230 nM
[31]
  GI50: 712 nM
  TGI: 8250 nM
[32]
  GI50: 278 nM
  TGI: > 22500 nM
[33]
  GI50: 1170 nM
  TGI: > 30000 nM
[34]
  GI50: 191 nM
  TGI: > 7020 nM
[35]
  GI50: 612 nM
  TGI: 3070 nM
[36]
  GI50: 396 nM
  TGI: > 30000 nM
[37]
  GI50: 234 nM
  TGI: > 30000 nM
[38]
  GI50: 255 nM
  TGI: 2490 nM
[39]
  GI50: 211 nM
  TGI: > 30000 nM
[40]
  GI50: 183 nM
  TGI: 13600 nM
[41]
  GI50: 316 nM
  TGI: > 25800 nM
[42]
  GI50: 301 nM
  TGI: > 18300 nM
[43]
  GI50: 272 nM
  TGI: > 13500 nM
[44]
  GI50: 295 nM
  TGI: > 30000 nM
[45]
  GI50: 242 nM
  TGI: 9350 nM
[46]
  GI50: 234 nM
  TGI: > 16100 nM
[47]
  GI50: 398 nM
  TGI: 5410 nM
[48]
  GI50: 105 nM
  TGI: 6750 nM
[49]
  GI50: 85.6 nM
  TGI: 4180 nM
[50]
  GI50: 567 nM
  TGI: > 30000 nM
[51]
  GI50: 1810 nM
  TGI: > 24900 nM
[52]
  GI50: 293 nM
[53]
  GI50: 1130 nM
  TGI: > 17000 nM
[54]
  GI50: 253 nM
  TGI: > 30000 nM
[55]
  GI50: 348 nM
  TGI: > 23600 nM
[56]
  GI50: 363 nM
  TGI: 14000 nM
[57]
  GI50: 163 nM
  TGI: > 30000 nM
[58]
  GI50: 354 nM
  TGI: > 13500 nM

Reference: PubChem BioAssay (NCI)
